Measurements as given in patent publication US20080182274A1, “MONITOR PROTEINS USABLE FOR ANALYZING EXPRESSION OF MEMBRANE PROTEINS” (National Institute of Advanced Industrial Science and …, priority 2007, published 2008).

Test system: monitor protein expressed on the cell membrane
Experiment: Recovery of cell-membrane luminescence after Sulfo-NHS deactivation (intracellular transport of monitor protein)
Format: cell-based, Chinese hamster
Conditions: CHO-K1 cells expressing pCMV-DL-D3-CD8, 1 mM BFA, up to 6 hours after deactivation, FIG. 6
Procedure: The vector pCMV-DL-D3-CD8 prepared in Example 1 was introduced into an animal cell. Briefly, CHO-K1 cells were seeded on 6-well plates at 1=10^6 cells/well and cultured in D-MEM/Ham's F-12 medium (Wako Purechamical Industries) containing 10% FCS. After overnight culture at 37° C., 4 μg of pCMV-DL-D3-CD8 was added to each well and mixed with 250 μl of Opti-MEM serum-free medium (Gibco RRL) and reacted at room temperature for 5 min. Then, 10 μl of lipofectamine 2000 reacted in 250 μl of Opti-MEM serum-free medium at room temperature for 5 min was mixed with the cells to perform transfection in Opti-MEM serum-free medium. Then, the medium was exchanged for D-MEM/Ham's F-12 medium containing 10% FCS. […] Then, cells were counted, followed by preparation of a cell suspension with a cell density of 2×10^7 cells/ml.
By adding 0.5 mM Sulfo-NHS (Pierce) to the cell suspension, the monitor protein expressed on the cell membrane was inactivated. […] Cells were counted and arranged to give a density of 4×10^5 cells per 100 μl. […] To one aliquot, 2 μl of dinoflagellate-derived luciferin was added and the luminescence activity of the monitor protein expressed on the cell membrane was measured. Other aliquots were subjected to measurement of the amount of ATP-derived luminescence in order to examine whether the cell count is constant in individual samples taken at the above-indicated time points.

C[C@H]1CCC/C=C/[C@@H]2C[C@H](O)C[C@H]2[C@H](O)/C=C/C(=O)O1 [BFA, Brefeldin A]
luminescence derived from the membrane protein expressed on the cell membrane after deactivation treatment: luminescence was not recognized
